Measured values as given in US20250230193A1, “CYCLIC COMPOUND HAVING SELECTIVE KRAS INHIBITORY EFFECT ON HRAS AND NRAS” (CHUGAI SEIYAKU KABUSHIKI KAISHA, priority 2022, published 2025).
*1 amine or outer side, *2 acyl side, *3 side chain or, on linkers, in order; H or OH if unused. Where a SMILES comes first, the peptide text is derived from it. Bridges are numbered along the chain shown (N, C = ends). [ ]: non-standard residue; d: D form. The star is where a group is joined. hPhe(3,5-F2-4-CF3) = N[C@@H](CCc1cc(F)c(C(F)(F)F)c(F)c1)C(=O)O; hPhe(3-Cl-4-CF3) = N[C@@H](CCc1ccc(C(F)(F)F)c(Cl)c1)C(=O)O; NPrPhe(4-CF3) = CCCN[C@@H](Cc1ccc(C(F)(F)F)cc1)C(=O)O; X16 = O=C([C@@H](N[*:1])C1CC(F)(F)C1)[*:2]; NMeGly(cPent) = CN[C@H](C(=O)O)C1CCCC1; X46 = CC1(C)CN([*:1])[C@@H]1C(=O)[*:2]; NMeD = CN[C@@H](CC(=O)O)C(=O)O; NMeL = CN[C@@H](CC(C)C)C(=O)O; Morpholide = C1CN(*)CCO1; Ac5c = NC1(C(=O)O)CCCC1; Aze = O=C(O)[C@@H]1CCN1; Sar = CNCC(=O)O

Columns and labels:
[1] = target: GDP-bound HRAS wild-type protein (Homo sapiens, UniProt P01112); assay: Binding to HRAS by surface plasmon resonance (SPR), Single Cycle Kinetics; conditions: SPR; for HRAS/KRAS (ratio of KD value with respect to HRAS to KD value with respect to KRAS): GDP-bound HRAS wild-type vs GDP-bound KRAS wild-type
Chain of GDP-bound HRAS wild-type protein (P01112 whole entry): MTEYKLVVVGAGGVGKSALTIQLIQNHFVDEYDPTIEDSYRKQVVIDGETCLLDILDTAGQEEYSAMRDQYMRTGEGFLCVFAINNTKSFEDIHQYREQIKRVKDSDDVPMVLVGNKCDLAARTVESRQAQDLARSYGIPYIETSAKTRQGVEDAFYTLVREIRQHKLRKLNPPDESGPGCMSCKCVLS

[2] = target: GDP-bound NRAS wild-type protein (Homo sapiens, UniProt P01111); assay: Binding to NRAS by surface plasmon resonance (SPR), Single Cycle Kinetics; conditions: SPR; for NRAS/KRAS (ratio of KD value with respect to NRAS to KD value with respect to KRAS): GDP-bound NRAS wild-type vs GDP-bound KRAS wild-type
Chain of GDP-bound NRAS wild-type protein (P01111 whole entry): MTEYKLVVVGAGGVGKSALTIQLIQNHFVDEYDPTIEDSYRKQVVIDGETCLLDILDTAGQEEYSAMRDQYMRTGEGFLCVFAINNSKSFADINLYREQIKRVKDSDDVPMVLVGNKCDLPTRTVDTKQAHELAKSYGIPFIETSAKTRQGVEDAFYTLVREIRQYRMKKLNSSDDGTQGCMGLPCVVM

Row | SMILES | HRAS/KRAS (ratio of KD for GDP-bound HRAS wild-type to KD for KRAS) ([1]; KD ratio HRAS/KRAS) | NRAS/KRAS (ratio of KD for GDP-bound NRAS wild-type to KD for KRAS) ([2]; KD ratio NRAS/KRAS) | HRAS/KRAS (ratio of KD value with respect to HRAS to KD value with respect to KRAS) [1] | NRAS/KRAS (ratio of KD value with respect to NRAS to KD value with respect to KRAS) [2] | other results
1 | CCCN1C(=O)[C@@H]2CCN2C(=O)CN(C)C(=O)[C@H](C2CC(F)(F)C2)NC(=O)[C@H](CC(C)C)N(C)C(=O)C[C@@H](C(=O)N2CCOCC2)N(C)C(=O)[C@H](C2CCCC2)N(C)C(=O)C2(CCCC2)NC(=O)[C@@H]2CCCN2C(=O)[C@H](CCc2cc(F)c(C(F)(F)F)c(F)c2)NC(=O)CN(C)C(=O)[C@@H]1Cc1ccc(C(F)(F)F)cc1 [PP0787] ([NMeL][X16][Sar][Aze][NPrPhe(4-CF3)][Sar][hPhe(3,5-F2-4-CF3)]P[Ac5c][NMeGly(cPent)][NMeD]-Morpholide; lactam N-11) |  |  |  |  | HRAS/KRAS (ratio of KD value with respect to GDP-bound HRAS wild-type protein to KD value with respect to KRAS) ([1]; KD ratio HRAS/KRAS): B (a compound having 3 or more and less than 10 is denoted as B); NRAS/KRAS (ratio of KD value with respect to GDP-bound NRAS wild-type protein to KD value with respect to KRAS) ([2]; KD ratio NRAS/KRAS): C (A compound having a KD ratio of 0.1 or more and less than 3 is denoted as C)
2 | CC[C@H](C)[C@@H]1NC(=O)[C@H](CC(C)C)N(C)C(=O)C[C@@H](C(=O)N2CCOCC2)N(C)C(=O)[C@H](C2CCCC2)N(C)C(=O)C2(CCCC2)NC(=O)[C@@H]2CCCN2C(=O)[C@H](CCc2ccc(C(F)(F)F)c(Cl)c2)NC(=O)CN(C)C(=O)[C@H](Cc2ccc(C(F)(F)F)cc2)N2CCCC[C@@H](C2=O)N(C)C(=O)CN(C)C1=O [PP0318] | B (a compound having 3 or more and less than 10 is denoted as B) | B (a compound having 3 or more and less than 10 is denoted as B) |  |  | 
3 | CCCN1C(=O)CN(C)C(=O)[C@H]2N(CC2(C)C)C(=O)[C@H]([C@@H](C)CC)NC(=O)[C@H](CC(C)C)N(C)C(=O)C[C@@H](C(=O)N2CCOCC2)N(C)C(=O)[C@H](C2CCCC2)N(C)C(=O)C2(CCCC2)NC(=O)[C@@H]2CCCN2C(=O)[C@H](CCc2ccc(C(F)(F)F)c(Cl)c2)NC(=O)CN(C)C(=O)[C@@H]1Cc1ccc(C(F)(F)F)cc1 [PP0256] ([NMeL]I[X46][Sar][NPrPhe(4-CF3)][Sar][hPhe(3-Cl-4-CF3)]P[Ac5c][NMeGly(cPent)][NMeD]-Morpholide; lactam N-11) | C (A compound having a KD ratio of 0.1 or more and less than 3 is denoted as C) | B (a compound having 3 or more and less than 10 is denoted as B) |  |  | 
4 | CCC[C@@H]1C[C@H]2C(=O)NC3(CCC3)C(=O)N(C)[C@@H](C3CCCC3)C(=O)N(C)[C@H](C(=O)N(C)C)CC(=O)N(C)[C@@H](CC(C)C)C(=O)N[C@@H]([C@@H](C)CC)C(=O)N(C)CC(=O)N(C)[C@H]3C/C=C\CCN(C3=O)[C@@H](Cc3ccc(C)cc3)C(=O)N(C)CC(=O)N[C@@H](CCc3cc(F)c(C(F)(F)F)c(F)c3)C(=O)N2C1 [PP2231] |  |  | B (a compound having 3 or more and less than 10 is denoted as B) | A (a compound having 10 or more and less than 20 is denoted as A) | 
5 | C#CC[C@H]1C(=O)N[C@@H]([C@@H](C)CC)C(=O)N(C)CC(=O)N(C)[C@H]2C/C=C\CCN(C2=O)[C@@H](Cc2ccc(C(F)(F)F)cc2)C(=O)N(C)CC(=O)N[C@@H](CCc2cc(F)c(C(F)(F)F)c(F)c2)C(=O)N2C[C@@H](C)C[C@H]2C(=O)NC2(CCC2)C(=O)N(C)[C@@H](C2CCCC2)C(=O)N(C)[C@H](C(=O)N(C)CCC)CC(=O)N1C [PP2077] |  |  | A (a compound having 10 or more and less than 20 is denoted as A) | A (a compound having 10 or more and less than 20 is denoted as A) | 
6 | CCO[C@@H]1C[C@H]2C(=O)NC3(CCC3)C(=O)N(C)[C@@H](C3CCCC3)C(=O)N(C)[C@H](C(=O)N(C)C)CC(=O)N(C)[C@@H](Cc3cccs3)C(=O)N[C@@H]([C@@H](C)CC)C(=O)N(C)CC(=O)N(C)[C@H]3CCCCCN(C3=O)[C@@H](Cc3ccc(C(F)(F)F)cc3)C(=O)N(C)CC(=O)N[C@@H](CCc3cc(F)c(C(F)(F)F)c(F)c3)C(=O)N2C1 [PP1169] |  |  |  |  | HRAS/KRAS (ratio of KD value with respect to HRAS to KD value with respect to KRAS) ([1]; KD ratio): B (a compound having 3 or more and less than 10 is denoted as B); NRAS/KRAS (ratio of KD value with respect to NRAS to KD value with respect to KRAS) ([2]; KD ratio): B (a compound having 3 or more and less than 10 is denoted as B)
